Results reported in patent publication US20130281494A1, “POLYMORPHS OF N-(6-(4-CHLOROPHENOXY)HEXYL)-N'-CYANO-N"-(4-PYRIDYL)GUANIDINE, AND PREPARATION THEREOF AND USE THEREOF” (Tianjin Michele Sci-Tech Development Co., Ltd., priority 2010, published 2013).

Tests used:
[1] = Stability of polymorphs exposed to the air at room temperature for 12 months, purity by HPLC; assay type: physicochemical; conditions: for Original Purity: before exposure; for Purity (after exposed for 12 months): exposed to the air at room temperature for 12 months
Procedure: The obtained purity results thereof were shown s follows.
The purities were measured by using high performance liquid chromatography under the following conditions.
Chromatographic Column. […] ODS (150*4.6 mm, 5μ)
Phase A: 11.5% (v/v) of acetonitrile aqueous solution containing 0.01 mol/L of lauryl sodium sulfate and 0.0125 mol/L of dipotassium hydrogen phosphate (adjusted to pH 2.5 with phosphoric acid)
Column Temperature: 40° C.;
Detection Wavelength: 278 nm;

[2] = test system: human tumor cells; conditions: nude mouse transplanted with human tumor cells; cited from earlier work
[3] = test system: human lung cancer tumor xenograft; conditions: cited from earlier work
[4] = test system: human lung cancer and breast cancer cell lines; conditions: cited from earlier work

SMILES: N#C/N=C(\NCCCCCCOc1ccc(Cl)cc1)Nc1ccncc1 [Polymorph V, N-(6-(4-chlorophenoxy)hexyl)-N′-cyano-N″-(4-pyridyl)guanidine]
- Original Purity [1]: 95.82%
- Purity (after exposed for 12 months) [1]: 95.02%

SMILES: N#C/N=C(\NCCCCCCOc1ccc(Cl)cc1)Nc1ccncc1 [N-(6-(4-chlorophenoxy)hexyl)-N′-cyano-N″-(4-pyridyl)guanidine]
- antitumor activity in vivo [2]: highly potent antitumor activity
- antitumor activity in the nude mice model [3]: potent antitumor activity
- antiproliferative activity in vitro [4]: high antiproliferative activity

SMILES: N#C/N=C(\NCCCCCCOc1ccc(Cl)cc1)Nc1ccncc1 [Polymorph I, N-(6-(4-chlorophenoxy)hexyl)-N′-cyano-N″-(4-pyridyl)guanidine]
- Original Purity [1]: 98.01%
- Purity (after exposed for 12 months) [1]: 97.49%

SMILES: N#C/N=C(\NCCCCCCOc1ccc(Cl)cc1)Nc1ccncc1 [Polymorph IV, N-(6-(4-chlorophenoxy)hexyl)-N′-cyano-N″-(4-pyridyl)guanidine]
- Original Purity [1]: 99.59%
- Purity (after exposed for 12 months) [1]: 99.45%

SMILES: N#C/N=C(\NCCCCCCOc1ccc(Cl)cc1)Nc1ccncc1 [Polymorph III, N-(6-(4-chlorophenoxy)hexyl)-N′-cyano-N″-(4-pyridyl)guanidine]
- Original Purity [1]: 97.83%
- Purity (after exposed for 12 months) [1]: 97.56%

SMILES: N#C/N=C(\NCCCCCCOc1ccc(Cl)cc1)Nc1ccncc1 [Polymorph II, N-(6-(4-chlorophenoxy)hexyl)-N′-cyano-N″-(4-pyridyl)guanidine]
- Original Purity [1]: 99.45%
- Purity (after exposed for 12 months) [1]: 99.36%

SMILES: N#C/N=C(\NCCCCCCOc1ccc(Cl)cc1)Nc1ccncc1 [Polymorph VI, N-(6-(4-chlorophenoxy)hexyl)-N′-cyano-N″-(4-pyridyl)guanidine]
- Original Purity [1]: 99.55%
- Purity (after exposed for 12 months) [1]: 99.28%
